Measurements as given in PMC4765732 (Journal of medicinal chemistry, 2015).

How the values were obtained:
HIV-1LAI = experiment: Antiviral assay in MT-2 human T-lymphocytes exposed to HIV-1LAI; format: cell-based
HIV-1DRV^RP51 = format: cell-based; conditions: against HIV-1DRV^RP51

| Compound | improvement in antiviral activity over the methyl and ethyl derivatives (HIV-1LAI; antiviral IC50 versus 25f and 25i) | improvement in EC50 values over darunavir (HIV-1DRV^RP51) | loss in antiviral activity (HIV-1LAI; versus Boc-derivative 25c) |
| --- | --- | --- | --- |
| COc1ccc(S(=O)(=O)N(CC(C)C)C[C@@H](O)[C@H](Cc2ccccc2)NC(=O)O[C@H]2CO[C@H]3OC[C@H](NC(C)C)[C@H]32)cc1 [Inhibitor 25j, (3R,3aS,4R,6aR)-4-(Isopropylamino)hexahydrofuro[2,3-b]furan-3-yl ((2S,3R)-3-hydroxy-4-((N-isobutyl-4-methoxyphenyl)sulfonamido)-1-phenylbutan-2-yl)carbamate] | over 60 fold | 10 fold |  |
| CCN[C@H]1CO[C@@H]2OC[C@H](OC(=O)N[C@@H](Cc3ccccc3)[C@H](O)CN(CC(C)C)S(=O)(=O)c3ccc(OC)cc3)[C@@H]21 [Inhibitor 25i] |  | 10 fold |  |
| COc1ccc(S(=O)(=O)N(CC(C)C)C[C@@H](O)[C@H](Cc2ccccc2)NC(=O)O[C@H]2CO[C@H]3OC[C@H](N(C)C(=O)OC(C)(C)C)[C@H]32)cc1 [Inhibitor 25e, (3R,3aS,4R,6aR)-4-((2S,3R)-3-Hydroxy-4-(N-isobutyl-4-methoxyphenylsulfonamido)-1-phenylbutan-2-ylcarbamoyloxy)hexahydrofuro[2,3-b]furan-3-yl methyl t-butyl carbamate] |  |  | ~10 fold |
